Paper PMC2776708 (Bioorganic & medicinal chemistry letters, 2009)
Like-named read-outs stand apart in the source and are kept apart here.

What was measured:
WNV NS2B-NS3 proteinase [1] = molecular target: T1, WNV NS2B-NS3 proteinase (West Nile virus, UniProt Q9Q6P4); conditions: products of ester hydrolysis; cited from earlier work
WNV NS2B-NS3 proteinase [2] = molecular target: T1, WNV NS2B-NS3 proteinase; experiment: WNV NS2B-NS3 proteinase activity assay with Pyr-RTKR-AMC fluorogenic substrate; type: biochemical; conditions: for inhibitory activity (in words): qualitative statement
Stability = type: physicochemical; conditions: qualitative statement
WNV NS2B-NS3 proteinase [3] = molecular target: T1, WNV NS2B-NS3 proteinase; experiment: Stability in the in vitro assay buffer with WNV NS2B-NS3 proteinase; conditions: Figure 2
[4] = Stability in the in vitro assay buffer without enzyme; type: physicochemical; conditions: absence of enzyme, Figure 2

T1 sequence (Q9Q6P4 1506-1683): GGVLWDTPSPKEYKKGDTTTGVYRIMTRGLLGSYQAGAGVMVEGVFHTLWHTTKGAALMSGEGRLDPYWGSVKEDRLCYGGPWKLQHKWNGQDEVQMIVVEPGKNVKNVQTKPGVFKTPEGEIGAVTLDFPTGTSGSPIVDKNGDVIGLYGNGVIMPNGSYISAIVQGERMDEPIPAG
T1 sequence (Q9Q6P4 1375-1505): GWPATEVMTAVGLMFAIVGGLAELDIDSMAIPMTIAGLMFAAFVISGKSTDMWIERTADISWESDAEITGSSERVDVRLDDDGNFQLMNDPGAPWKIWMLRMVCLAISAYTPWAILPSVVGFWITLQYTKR

COc1ccc(Cn2nc(C)cc2O)cc1 [Compound 8, 1-(4-methoxybenzyl)-3-methyl-1H-pyrazol-5-ol]
IC50 (WNV NS2B-NS3 proteinase [1]): > 100 µM

COc1ccc(S(=O)(=O)n2nc(OC(=O)c3ccccc3[N+](=O)[O-])cc2N)cc1 [Compound 7p]
IC50 (WNV NS2B-NS3 proteinase [2]): > 100 µM | inhibitory activity (in words) (WNV NS2B-NS3 proteinase [2]): inactive

COc1ccc(Cn2nc(C)cc2OC(=O)c2ccccc2)cc1 [Compound 10a]
stability in pH 8 buffer (in words) (Stability): significantly more stable | stability in presence of enzyme (in words) (WNV NS2B-NS3 proteinase [3]): approximately the same in the presence or absence of the enzyme

COc1ccc(S(=O)(=O)n2nc(OC(=O)c3ccccc3C)cc2N)cc1 [Compound 7f]
inhibitory activity (in words) (WNV NS2B-NS3 proteinase [2]): retained its micromolar inhibitory activity

COc1ccc(Cn2nc(C)cc2/C=C/c2c(F)cccc2F)cc1 [Compound 14]
stability in pH 8 buffer (in words) (Stability): highly stable

COc1ccc(S(=O)(=O)n2nc(OC(=O)c3c(Cl)cccc3Cl)cc2N)cc1 [Compound 7n]
IC50 (WNV NS2B-NS3 proteinase [2]): > 100 µM | inhibitory activity (in words) (WNV NS2B-NS3 proteinase [2]): complete loss of activity

COc1ccc(S(=O)(=O)n2nc(OC(=O)c3cccs3)cc2N)cc1 [Compound 2]
IC50 (WNV NS2B-NS3 proteinase [2]): 0.11 µM

Cc1cc(NC(=O)c2ccccc2)n(-c2ccccc2)n1 [Compound 15]
stability in pH 8 buffer (in words) (Stability): highly stable

COc1ccc(Cn2nc(C)cc2CC(=O)c2ccccc2)cc1 [Compound 13a]
IC50 (WNV NS2B-NS3 proteinase [2]): > 100 µM

COc1ccc(Cn2nc(C)cc2CC(O)c2ccccc2)cc1 (stereo not shown) [Compound 12a]
IC50 (WNV NS2B-NS3 proteinase [2]): > 100 µM

COc1ccc(S(=O)(=O)n2nc(OC(=O)c3ccc(F)cc3F)cc2N)cc1 [Compound 7e]
stability in assay buffer (in words) [4]: relatively stable | stability in presence of enzyme (in words) (WNV NS2B-NS3 proteinase [3]): degraded rapidly

COc1ccc(S(=O)(=O)n2nc(OC(=O)c3c(F)cccc3F)cc2N)cc1 [Compound 7a]
stability in pH 8 buffer (in words) (Stability): significantly more stable

COc1ccc(S(=O)(=O)n2nc(OC(=O)c3ccccc3)cc2N)cc1 [Compound 1]
IC50 (WNV NS2B-NS3 proteinase [2]): 0.105 µM

COc1ccc(S(=O)(=O)n2nc(OC(=O)c3ccccc3OC)cc2N)cc1 [Compound 7o]
inhibitory activity (in words) (WNV NS2B-NS3 proteinase [2]): inactive

COc1ccc(Cn2nc(C)cc2CC(O)c2c(F)cccc2F)cc1 (stereo not shown) [Compound 12b]
IC50 (WNV NS2B-NS3 proteinase [2]): > 100 µM
